Assay results reported in the supplement of paper PMC11061612.

What was measured:
[1] = tested on: D-263MG (Glioblastoma); test: Bliss excess, mean over the matrix (fraction); higher = more synergy
Outline: (§1)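 Cell lines grown in DMEM/F12 or RPMI with 10% FBS were plated in 1536-well plates and held 24 hours at 37°C, 5% CO2 before 72 hours of exposure to two-drug dose matrices, with DMSO typically at 0.2%. CellTiter-Glo 2.0 luminescence gave viability, which was converted to inhibition. Vehicle wells were set to 0 and blank wells to 1. Combination Emax is the second-highest inhibition in the matrix, and Bliss excess is the observed combination effect minus the expected EA + EB − EA·EB, where EA and EB are the single-agent effects.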

[2] = tested on: TE-1 (Esophageal Squamous Cell Carcinoma); test: as above
Outline: as §1

[3] = tested on: MLMA (Other Blood Carcinomas); test: as above
Outline: as §1

[4] = tested on: TGW (Neuroblastoma); test: as above
Outline: as §1

[5] = tested on: HOP-62 (Lung Adenocarcinoma); test: as above
Outline: as §1

[6] = tested on: EFM-19 (Breast Carcinoma); test: as above
Outline: as §1

[7] = tested on: Hs-766T (Pancreatic Carcinoma); test: as above
Outline: as §1

[8] = tested on: NCI-H727 (Other Solid Carcinomas); test: as above
Outline: as §1

[9] = tested on: OSC-20 (Oral Cavity Carcinoma); test: as above
Outline: as §1

[10] = tested on: NB69 (Neuroblastoma); test: as above
Outline: as §1

[11] = tested on: KYSE-450 (Esophageal Squamous Cell Carcinoma); test: as above
Outline: as §1

[12] = tested on: EoL-1-cell (Acute Myeloid Leukemia); test: as above
Outline: as §1

[13] = tested on: Ca9-22 (Head and Neck Carcinoma); test: as above
Outline: as §1

[14] = tested on: Caov-4 (Ovarian Carcinoma); test: as above
Outline: as §1

[15] = tested on: VA-ES-BJ (Other Solid Carcinomas); test: as above
Outline: as §1

[16] = tested on: NCI-H1915 (Non-Small Cell Lung Carcinoma); test: as above
Outline: as §1

[17] = tested on: TK10 (Kidney Carcinoma); test: as above
Outline: as §1

[18] = tested on: MIA-PaCa-2 (Pancreatic Carcinoma); test: as above
Outline: as §1

[19] = tested on: EW-24 (Ewing's Sarcoma); test: as above
Outline: as §1

[20] = tested on: NEC8 (Other Solid Carcinomas); test: combination Emax (second highest fraction inhibited in the dose matrix, 72 h); higher = more inhibition; extreme values may be limits of the assay
Outline: as §1
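Wherever Bliss excess, mean over the matrix is given: after 72 h of two-drug dosing.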

Structure (SMILES) | Bliss excess [1] | Bliss excess [2] | Bliss excess [3] | Bliss excess [4] | Bliss excess [5] | Bliss excess [6] | Bliss excess [7] | Bliss excess [8] | Bliss excess [9] | Bliss excess [10] | Bliss excess [11] | Bliss excess [12] | Bliss excess [13] | Bliss excess [14] | Bliss excess [15] | Bliss excess [16] | Bliss excess [17] | Bliss excess [18] | Bliss excess [19] | combination Emax [20]
CN(CCO)CC[C@H](CSc1ccccc1)Nc1ccc(S(=O)(=O)NC(=O)c2ccc(N3CCC([C@@H](O)c4ccccc4-c4ccc(Cl)cc4)CC3)cc2)cc1S(=O)(=O)C(F)(F)F [AZD4320] + CN(C)CCCOc1ccc(-c2ccc3ncc4c(c3c2)n(C2CCOCC2)c(=O)n4C)cn1 [AZD0156] (first compound max 1 µM, 7x7, partner max 1 µM) | -0.0256 | -0.033 | 0.0214 | -0.0068 | -0.0619 | -0.0491 | -0.087 | -0.0606 | -0.0595 | -0.12 | -0.0485 | 0.024 | -0.0338 | -0.0319 | -0.0379 | 0.0196 | -0.0373 | -0.0626 | -0.0096 | 0.203
COc1cccc(OCCCN)c1-c1cc(Nc2cnc(C#N)cn2)n[nH]1 [Prexasertib] + O=C(c1cc(Cc2n[nH]c(=O)c3ccccc23)ccc1F)N1CCN(C(=O)C2CC2)CC1 [Olaparib] (first compound max 1 µM, 7x7, partner max 10 µM) | -0.0665 | -0.11 | -0.0442 | -0.0665 | -0.0319 | -0.0094 | -0.032 | -0.259 | -0.013 | -0.0313 | -0.025 | -0.0146 | -0.007 | -0.0542 | -0.0337 | -0.0002 | -0.0975 | -0.0781 | -0.0292 | 0.968
COc1cccc(OCCCN)c1-c1cc(Nc2cnc(C#N)cn2)n[nH]1 [Prexasertib] + C[C@@H]1COCCN1C2=NC(=NC(=C2)C3(CC3)[S@](=N)(=O)C)C4=C5C=CNC5=NC=C4 [AZD6738] (first compound max 1 µM, 7x7, partner max 10 µM) | -0.019 | -0.0617 | -0.0514 | -0.019 | 0.0375 | -0.0296 | 0.0101 | -0.0047 | -0.0583 | -0.0228 | 0.0135 | -0.0109 | -0.0024 | -0.0123 | -0.0114 | -0.0396 | 0.0238 | -0.105 | -0.0522 | 0.983
NC1(C(=O)N[C@@H](CCO)c2ccc(Cl)cc2)CCN(c2ncnc3[nH]ccc23)CC1 [Capivasertib] + COc1nnc2ccc(N3CCC(c4ccc(OCCN5CCN(C)C(=O)[C@H]5C)cc4)CC3)nn12 [AZD5153] (first compound max 10 µM, 7x7, partner max 1 µM) | 0.0459 | -0.0169 | -0.0177 | -0.0364 | -0.0633 | 0.0634 | 0.0126 | 0.0278 | 0.0093 | -0.0299 | -0.0508 | -0.0442 | -0.0073 | -0.0146 | 0.0414 | 0.0289 | -0.0154 | -0.0594 | 0.0532 | 0.951
COc1nnc2ccc(N3CCC(c4ccc(OCCN5CCN(C)C(=O)[C@H]5C)cc4)CC3)nn12 [AZD5153] + CCN(CCO)CCCOc1ccc2c(Nc3cc(CC(=O)Nc4cccc(F)c4)[nH]n3)ncnc2c1 [AZD2811] (first compound max 1 µM, 7x7, partner max 1 µM) | -0.0231 | 0.0103 | -0.0434 | -0.109 | -0.0853 | -0.0262 | -0.0263 | -0.0469 | -0.0785 | -0.0087 | -0.0527 | 0.003 | -0.023 | -0.0403 | -0.0342 | -0.0764 | -0.0717 | 0.0109 | -0.0598 | 0.826
Cc1c2c(nn1C)CSCc1cc(n(C)n1)CSc1cc(c3ccccc3c1)OCCCc1c(C(=O)O)n(C)c3c-2c(Cl)ccc13 [AZD5991] + C1CN(CCC1(C(=O)N[C@@H](CCO)C2=CC=C(C=C2)Cl)N)C3=NC=NC4=C3C=CN4 [Capivasertib] (first compound max 1 µM, 7x7, partner max 3 µM) | 0.083 | -0.0107 | 0.0394 | 0.0078 | -0.0422 | 0.0003 | -0.0994 | 0.0322 | 0.0036 | -0.0071 | -0.009 | 0.0528 | -0.0261 | 0.0354 | -0.0109 | 0.0103 | -0.031 | 0.0125 | 0.0392 | 0.431
CC(=O)c1c(C)c2cnc(Nc3ccc(N4CCNCC4)cn3)nc2n(C2CCCC2)c1=O [Palbociclib] + Cn1cnc2c(F)c(Nc3ccc(Br)cc3Cl)c(C(=O)NOCCO)cc21 [Selumetinib] (first compound max 10 µM, 7x7, partner max 10 µM) | -0.0077 | 0.0048 | 0.0398 | 0.0125 | -0.0079 | -0.0313 | -0.0221 | -0.0139 | -0.0566 | 0.0829 | 0.0539 | 0.112 | 0.0539 | -0.0247 | -0.0518 | -0.034 | 0.0072 | 0.0413 | -0.0617 | 0.0587
COc1cccc(OCCCN)c1-c1cc(Nc2cnc(C#N)cn2)n[nH]1 [Prexasertib] + C=CCn1c(=O)c2cnc(Nc3ccc(N4CCN(C)CC4)cc3)nc2n1-c1cccc(C(C)(C)O)n1 [AZD1775] (first compound max 1 µM, partner max 1 µM) | 0.0378 | 0.0112 | 0.0034 | 0.0499 | 0.0474 | 0.025 | -0.0579 | 0.0061 | -0.0076 | 0.0657 | 0.219 | 0.0565 | 0.0833 | 0.007 | 0.12 | 0.0494 | 0.0018 | 0.143 | -0.1 | 0.999
Cn1cnc2c(F)c(Nc3ccc(Br)cc3Cl)c(C(=O)NOCCO)cc21 [Selumetinib] + CCN(CCO)CCCOc1ccc2c(Nc3cc(CC(=O)Nc4cccc(F)c4)[nH]n3)ncnc2c1 [AZD2811] (first compound max 10 µM, 7x7, partner max 1 µM) | -0.0385 | 0.0378 | -0.026 | -0.026 | -0.0772 | 0.0054 | -0.0659 | -0.0389 | -0.0115 | -0.0155 | -0.0117 | 0.0206 | 0.0241 | -0.0643 | -0.0263 | -0.038 | -0.0589 | 0.0585 | -0.014 | 0.0754
CCc1c2c(nc3ccc(O)cc13)-c1cc3c(c(=O)n1C2)COC(=O)[C@]3(O)CC [SN-38] + CN(C)CCCOc1ccc(-c2ccc3ncc4c(c3c2)n(C2CCOCC2)c(=O)n4C)cn1 [AZD0156] (first compound max 0.3 µM, 7x7, partner max 1 µM) | 0.0701 | 0.0182 | -0.0501 | 0.0047 | 0.0182 | -0.064 | -0.0147 | -0.006 | -0.0083 | 0.0106 | 0.0937 | 0.098 | 0.0332 | 0.0268 | -0.0165 | -0.0563 | 0.028 | 0.0279 | -0.0189 | 0.99
CN(C)CCCOc1ccc(-c2ccc3ncc4c(c3c2)n(C2CCOCC2)c(=O)n4C)cn1 [AZD0156] + C[C@@H]1COCCN1C2=NC(=NC(=C2)C3(CC3)[S@](=N)(=O)C)C4=C5C=CNC5=NC=C4 [AZD6738] (first compound max 1 µM, 7x7, partner max 10 µM) | 0.0366 | -0.0595 | -0.0132 | 0.0307 | -0.0232 | -0.0264 | 0.0079 | 0.0226 | -0.0085 | -0.069 | -0.0099 | 0.0408 | 0.0218 | -0.0388 | 0.0085 | 0.0366 | 0.001 | -0.0055 | -0.0225 | 0.877
COc1nnc2ccc(N3CCC(c4ccc(OCCN5CCN(C)C(=O)[C@H]5C)cc4)CC3)nn12 [AZD5153] + CC1(C)CCC(CN2CCN(c3ccc(C(=O)NS(=O)(=O)c4ccc(NCC5CCOCC5)c([N+](=O)[O-])c4)c(Oc4cnc5[nH]ccc5c4)c3)CC2)=C(c2ccc(Cl)cc2)C1 [Venetoclax] (first compound max 1 µM, 7x7, partner max 1 µM) | -0.0613 | -0.0383 | -0.0084 | 0.0081 | -0.0716 | -0.0442 | -0.0487 | -0.0558 | -0.0554 | 0.0488 | -0.0404 | -0.0183 | -0.0321 | 0.0179 | -0.0486 | -0.0659 | -0.0549 | -0.0739 | -0.0962 | 0.831
CCN(CCO)CCCOc1ccc2c(Nc3cc(CC(=O)Nc4cccc(F)c4)[nH]n3)ncnc2c1 [AZD2811] + C=CCn1c(=O)c2cnc(Nc3ccc(N4CCN(C)CC4)cc3)nc2n1-c1cccc(C(C)(C)O)n1 [AZD1775] (first compound max 1 µM, partner max 1 µM) | 0.0698 | 0.019 | 0.0432 | -0.0083 | -0.0287 | -0.0269 | -0.0445 | -0.0909 | -0.0449 | -0.0383 | -0.0206 | -0.0033 | 0.027 | -0.0258 | 0.0263 | 0.0056 | -0.0707 | 0.0756 | 0.0045 | 0.329
